The source of these data is US8962843B2, “1,3,4-oxadiazole and 1,3,4-thiadiazole beta-lactamase inhibitors” (priority 2012, dated 2015).

Structures are written as SMILES. Structures can show the parent of a compound that is named as a salt.

The test system of test [1] is bacterial strains that express the class D cephalosporinase OXA-15. The test is described as follows: Standard BLI potentiation MIC / synergy MIC assays, strains expressing OXA-15. As to conditions: in combination with a β-lactam; comparator Avibactam (CCC). The format is cell-based, E. coli. The essentials:
(§1)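 Broth microdilution in cation-adjusted Mueller Hinton broth per CLSI M07-A9, ~10^5 CFU/mL, 18-20 h at 37 °C with aeration; engineered E. coli carrying β-lactamase plasmids kept on 25 μg/mL tetracycline. β-lactam MIC measured in 2-fold dilutions (128-0.13 μg/mL) with BLI fixed at 4 μg/mL; sMIC titrates BLI against a fixed β-lactam concentration. MIC = lowest concentration without visible turbidity.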

Test [2] relates to bacterial strains that express KPC β-lactamases. The test is described as follows: Standard BLI potentiation MIC / synergy MIC assays, strains expressing KPC β-lactamases. The conditions noted are these: in combination with a β-lactam; comparator Avibactam. The format is cell-based. The essentials:
as §1

As for `O=C1N2C[C@@H](CC[C@H]2c2nnc(CCNC3CCNCC3)o2)N1OS(=O)(=O)O` [Compound 770, (2S,5R)-7-oxo-2-(5-(2-(piperidin-4-ylamino)ethyl)-1,3,4-oxadiazol-2-yl)-1,6-diazabicyclo[3.2.1]octan-6-yl hydrogen sulfate], in test [1], the “activity against bacterial strains that express the class D cephalosporinase OXA-15, compared with Avibactam” value is reported as “more active than Avibactam”. The “activity and/or spectrum of activity against bacterial strains that express KPC β-lactamases, compared with Avibactam” value in test [2] was “more active than Avibactam for at least one, bacterial strain that expresses KPC β-lactamase and/or show a better spectrum of activity”.

As for `O=C1N2C[C@@H](CC[C@H]2c2nnc(CCCNC3CCNCC3)o2)N1OS(=O)(=O)O` [Compound 771, (2S,5R)-7-oxo-2-(5-(3-(piperidin-4-ylamino)propyl)-1,3,4-oxadiazol-2-yl)-1,6-diazabicyclo[3.2.1]octan-6-yl hydrogen sulfate], in test [1], the “activity against bacterial strains that express the class D cephalosporinase OXA-15, compared with Avibactam” value was “more active than Avibactam”. Further, the “activity and/or spectrum of activity against bacterial strains that express KPC β-lactamases, compared with Avibactam” value in test [2] was “more active than Avibactam for at least one, bacterial strain that expresses KPC β-lactamase and/or show a better spectrum of activity”.

Regarding `O=C1N2C[C@@H](CC[C@H]2c2nnc(CCCCNC3CCNCC3)o2)N1OS(=O)(=O)O` [Compound 772, (2S,5R)-7-oxo-2-(5-(4-(piperidin-4-ylamino)butyl)-1,3,4-oxadiazol-2-yl)-1,6-diazabicyclo[3.2.1]octan-6-yl hydrogen sulfate], the “activity against bacterial strains that express the class D cephalosporinase OXA-15, compared with Avibactam” value in test [1] is “more active than Avibactam”. Moreover, the “activity and/or spectrum of activity against bacterial strains that express KPC β-lactamases, compared with Avibactam” value in test [2] was “more active than Avibactam for at least one, bacterial strain that expresses KPC β-lactamase and/or show a better spectrum of activity”.

Consider `NC1CCN(Cc2nnc([C@@H]3CC[C@@H]4CN3C(=O)N4OS(=O)(=O)O)o2)CC1` [Compound 774, (2S,5R)-2-(5-((4-aminopiperidin-1-yl)methyl)-1,3,4-oxadiazol-2-yl)-7-oxo-1,6-diazabicyclo[3.2.1]octan-6-yl hydrogen sulfate], for which the “activity against bacterial strains that express the class D cephalosporinase OXA-15, compared with Avibactam” value in test [1] is on record as “more active than Avibactam”. In addition, the “activity and/or spectrum of activity against bacterial strains that express KPC β-lactamases, compared with Avibactam” value in test [2] was “more active than Avibactam for at least one, bacterial strain that expresses KPC β-lactamase and/or show a better spectrum of activity”.

For `O=C1N2C[C@@H](CC[C@H]2c2nnc(CCN3CCNCC3)o2)N1OS(=O)(=O)O` [Compound 776, (2S,5R)-7-oxo-2-(5-(2-(piperazin-1-ybethyl)-1,3,4-oxadiazol-2-yl)-1,6-diazabicyclo[3.2.1]octan-6-yl hydrogen sulfate], the “activity against bacterial strains that express the class D cephalosporinase OXA-15, compared with Avibactam” value in test [1] was “more active than Avibactam”. Besides, the “activity and/or spectrum of activity against bacterial strains that express KPC β-lactamases, compared with Avibactam” value in test [2] was “more active than Avibactam for at least one, bacterial strain that expresses KPC β-lactamase and/or show a better spectrum of activity”.

In the case of `O=C1N2C[C@@H](CC[C@H]2c2nnc(CN3CCNCC3)o2)N1OS(=O)(=O)O` [Compound 777, (2S,5R)-7-oxo-2-(5-(piperazin-1-ylmethyl)-1,3,4-oxadiazol-2-yl)-1,6-diazabicyclo[3.2.1]octan-6-yl hydrogen sulfate], in test [1], the “activity against bacterial strains that express the class D cephalosporinase OXA-15, compared with Avibactam” value is on record as “more active than Avibactam”. In test [2], the “activity and/or spectrum of activity against bacterial strains that express KPC β-lactamases, compared with Avibactam” value is listed as “more active than Avibactam for at least one, bacterial strain that expresses KPC β-lactamase and/or show a better spectrum of activity”.

For `O=C1N2C[C@@H](CC[C@H]2c2nnc([C@H]3CNCCN3)o2)N1OS(=O)(=O)O` [Compound 779, (2S,5R)-7-oxo-2-(5((R)-piperazin-2-yl)-1,3,4-oxadiazol-2-yl)-1,6-diazabicyclo[3.2.1]octan-6-yl hydrogen sulfate], the “activity against bacterial strains that express the class D cephalosporinase OXA-15, compared with Avibactam” value in test [1] is “more active than Avibactam”. In test [2], the “activity and/or spectrum of activity against bacterial strains that express KPC β-lactamases, compared with Avibactam” value was “more active than Avibactam for at least one, bacterial strain that expresses KPC β-lactamase and/or show a better spectrum of activity”.

Take `C[n+]1ccc(-c2nnc([C@@H]3CC[C@@H]4CN3C(=O)N4OS(=O)(=O)[O-])o2)cc1` [Compound 782, (2S,5R)-2-(5-(1-methylpyridin-1-ium-4-yl)-1,3,4-oxadiazol-2-yl)-7-oxo-1,6-diazabicyclo[3.2.1]octan-6-yl sulfate]: the “activity against bacterial strains that express the class D cephalosporinase OXA-15, compared with Avibactam” value in test [1] is given as “more active than Avibactam”. The “activity and/or spectrum of activity against bacterial strains that express KPC β-lactamases, compared with Avibactam” value in test [2] is “more active than Avibactam for at least one, bacterial strain that expresses KPC β-lactamase and/or show a better spectrum of activity”.

For `N[C@H]1C[C@H](c2nnc([C@@H]3CC[C@@H]4CN3C(=O)N4OS(=O)(=O)O)s2)C1` [Compound 783, (2S,5R)-2-(5-((1r,3S)-3-aminocyclobutyl)-1,3,4-thiadiazol-2-yl)-7-oxo-1,6-diazabicyclo[3.2.1]octan-6-yl hydrogen sulfate], the “activity against bacterial strains that express the class D cephalosporinase OXA-15, compared with Avibactam” value in test [1] was “more active than Avibactam”. In test [2], the “activity and/or spectrum of activity against bacterial strains that express KPC β-lactamases, compared with Avibactam” value was “more active than Avibactam for at least one, bacterial strain that expresses KPC β-lactamase and/or show a better spectrum of activity”.

Turning to `N=C(N)N[C@H]1C[C@@H](c2nnc([C@@H]3CC[C@@H]4CN3C(=O)N4OS(=O)(=O)O)s2)C1` [Compound 784, (2S,5R)-2-(5-((1s,3R)-3-guanidinocyclobutyl)-1,3,4-thiadiazol-2-yl)-7-oxo-1,6-diazabicyclo[3.2.1]octan-6-yl hydrogen sulfate], in test [1], the “activity against bacterial strains that express the class D cephalosporinase OXA-15, compared with Avibactam” value is on record as “more active than Avibactam”. Besides, the “activity and/or spectrum of activity against bacterial strains that express KPC β-lactamases, compared with Avibactam” value in test [2] is recorded as “more active than Avibactam for at least one, bacterial strain that expresses KPC β-lactamase and/or show a better spectrum of activity”.

In the case of `N=C(N)NCCc1nnc([C@@H]2CC[C@@H]3CN2C(=O)N3OS(=O)(=O)O)s1` [Compound 794, (2S,5R)-2-(5-(2-guanidinoethyl)-1,3,4-thiadiazol-2-yl)-7-oxo-1,6-diazabicyclo[3.2.1]octan-6-yl hydrogen sulfate], the “activity against bacterial strains that express the class D cephalosporinase OXA-15, compared with Avibactam” value in test [1] is “more active than Avibactam”. Moreover, the “activity and/or spectrum of activity against bacterial strains that express KPC β-lactamases, compared with Avibactam” value in test [2] is listed as “more active than Avibactam for at least one, bacterial strain that expresses KPC β-lactamase and/or show a better spectrum of activity”.

`N[C@H]1C[C@@H](c2nnc([C@@H]3CC[C@@H]4CN3C(=O)N4OS(=O)(=O)O)s2)C1` [Compound 795, (2S,5R)-2-(5-((1s,3R)-3-aminocyclobutyl)-1,3,4-thiadiazol-2-yl)-7-oxo-1,6-diazabicyclo[3.2.1]octan-6-yl hydrogen sulfate]: in test [1], the “activity against bacterial strains that express the class D cephalosporinase OXA-15, compared with Avibactam” value was “more active than Avibactam”. Besides, the “activity and/or spectrum of activity against bacterial strains that express KPC β-lactamases, compared with Avibactam” value in test [2] is reported as “more active than Avibactam for at least one, bacterial strain that expresses KPC β-lactamase and/or show a better spectrum of activity”.
